{"source": "patent US7767717B2", "about": "(priority 2003, dated 2010)", "key": {"[1]": {"experiment": "cutaneous [^3H]-4-hydroxy tamoxifen delivery in breast cancer patients: radioactivity in breast tissue, blood, urine", "conditions": "for share of radioactivity in blood: 24 hours after cutaneous 4-hydroxy tamoxifen", "experimental": "(§1) The patients received [^3H]-labeled drug applied directly on the affected breasts at specified intervals ranging from 12 hours to 7 days before surgery to excise diseased tissue. Breast tissue from three regions: the tumor, tissue immediately surrounding the tumor, and normal tissue, was excised and immediately frozen in liquid nitrogen. Additionally, plasma and urine samples were obtained at scheduled intervals and frozen until analysis."}, "[2]": {"conditions": "human, in vivo; cited from earlier work"}, "[3]": {"conditions": "topical application"}, "estrone sulphatase": {"biological_target": "T1, estrone sulphatase (Homo sapiens, UniProt P08842)", "T1 construct": "estrone sulphatase activity in mammary cancer cell lines; endogenous in cells", "T1 sequence (P08842 22-583)": "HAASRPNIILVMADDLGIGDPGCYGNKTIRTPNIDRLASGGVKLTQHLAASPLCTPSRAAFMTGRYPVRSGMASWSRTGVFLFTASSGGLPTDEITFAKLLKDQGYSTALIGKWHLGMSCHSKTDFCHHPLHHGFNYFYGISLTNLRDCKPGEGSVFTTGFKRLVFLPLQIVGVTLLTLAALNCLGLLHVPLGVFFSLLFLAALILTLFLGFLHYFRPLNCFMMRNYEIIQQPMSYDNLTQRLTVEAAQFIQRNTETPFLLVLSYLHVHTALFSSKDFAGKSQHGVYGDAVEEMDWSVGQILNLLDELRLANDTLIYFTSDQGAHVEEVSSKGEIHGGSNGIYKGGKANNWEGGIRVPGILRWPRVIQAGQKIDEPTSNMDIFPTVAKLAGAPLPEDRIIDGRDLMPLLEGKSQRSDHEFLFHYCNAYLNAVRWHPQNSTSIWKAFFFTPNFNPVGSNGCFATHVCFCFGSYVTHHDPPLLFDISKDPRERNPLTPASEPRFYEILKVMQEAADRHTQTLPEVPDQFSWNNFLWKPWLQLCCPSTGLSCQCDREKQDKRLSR", "conditions": "mammary cancer cell lines; cited from earlier work"}, "[4]": {"conditions": "human, in vivo", "experimental": "as §1"}, "[5]": {"conditions": "cited from earlier work"}, "[6]": {"experiment": "pharmacokinetics of topically applied 4-hydroxy tamoxifen gel in healthy premenopausal women", "format": "in vivo, human", "conditions": "last administration, day 25 of second cycle; for t1/2: range", "description": "Each participant applied the gel daily for the duration of two menstrual cycles.\nAt the end of a menstrual cycle, each patient received a single dose, after which serial blood samples were collected at 0, 0.5, 1, 1.5, 2, 3, 4, 6, 12, 18, 24, 36, 48, and 72 hours.\nOn the first day of the following menstruation, treatment, which consisted of daily application of the gel over two menstrual cycles, began. Blood samples were collected 24 hours following the morning application of gel on days 7, 20 and 25 of the first and second cycles. On the last day of administration, day 25 of the second menstrual cycle, serial blood samples were collected prior to application and at 0.5, 1, 1.5, 2, 3, 4, 6, 12, 18, 24, 36, 48, and 72 hours after application of the gel."}, "[7]": {"conditions": "Group 2 (0.5 mg/day gel) on the seventh day; Group 1 (oral tamoxifen 20 mg/day) on the fifth day; cited from earlier work"}, "[8]": {"system": "p53(−) normal human mammary epithelial cells", "conditions": "cited from earlier work"}, "keloid fibroblast": {"system": "keloid fibroblast", "conditions": "in vitro, cited from earlier work"}, "TGF-β1": {"system": "TGF-β1", "conditions": "cited from earlier work"}, "[9]": {"conditions": "12 hr after cutaneous Z-[^3H]-4-hydroxy tamoxifen to the affected breast"}, "[10]": {"conditions": "24 hr after cutaneous Z-[^3H]-4-hydroxy tamoxifen to the affected breast"}, "[11]": {"conditions": "36 hr after cutaneous Z-[^3H]-4-hydroxy tamoxifen to the affected breast"}, "[12]": {"conditions": "Day 4 after cutaneous Z-[^3H]-4-hydroxy tamoxifen to the affected breast"}, "[13]": {"conditions": "Day 7 after cutaneous Z-[^3H]-4-hydroxy tamoxifen to the affected breast"}}, "note": "Like-named read-outs stand apart in the source and are kept apart here."}
{"smiles": "CC/C(=C(\\c1ccc(O)cc1)c1ccc(OCCNC)cc1)c1ccccc1", "note": "[N-Desmethyl-4-Hydroxy Tamoxifen]", "values": [{"measurement": "% Metabolites in Breast Tissue", "setting": "[1]; [9]", "result": 2, "unit": "%"}, {"measurement": "share of radioactivity in blood", "setting": "[1]", "result": 18, "unit": "%"}, {"measurement": "% Metabolites in Breast Tissue", "setting": "[1]; [10]", "result": 4, "unit": "%"}, {"measurement": "% Metabolites in Breast Tissue", "setting": "[1]; [11]", "result": 14, "unit": "%"}, {"measurement": "% Metabolites in Breast Tissue", "setting": "[1]; [12]", "result": 20, "unit": "%"}, {"measurement": "% Metabolites in Breast Tissue", "setting": "[1]; [13]", "result": 16, "unit": "%"}]}
{"smiles": "CCC(=C(c1ccc(O)cc1)c1ccc(OCCN(C)C)cc1)c1ccccc1", "note": "[4-hydroxy tamoxifen, 1-[4-(2-N-dimethylaminoethoxy)phenyl]-1-(4-hydroxyphenyl)-2-phenylbut-1-ene]", "values": [{"measurement": "radioactivity in excised tissue and normal breast tissue surrounding the tumor", "setting": "[2]", "result": "contained radioactivity"}, {"measurement": "systemic effects", "setting": "[3]", "result": "no detectable laboratory or clinical evidence of systemic effects"}, {"measurement": "inhibitory effect on estrone sulphatase activity", "setting": "estrone sulphatase", "result": "significant inhibitory effect"}, {"measurement": "metabolism in intracellular sites of breast tissue", "setting": "[4]", "result": "remained unmetabolized except for limited isomerization from the Z to the E form"}, {"measurement": "metabolites in the urine", "setting": "[4]", "result": "progressive increase of metabolites, mostly N-desmethyl-4-hydroxy tamoxifen and bisphenol"}, {"measurement": "radioactivity administered that showed in the blood", "setting": "[4]", "result": 0.5, "unit": "%"}, {"measurement": "share of radioactivity in blood", "setting": "[4]", "result": 68, "unit": "%"}, {"measurement": "subcellular distribution in breast tissue", "setting": "[4]", "result": "concentrated predominantly in the cytosolic and nuclear fractions of breast tissue"}, {"measurement": "time of plateau of radioactivity in blood", "setting": "[4]", "result": "4 to 6", "unit": "days"}, {"measurement": "rat liver carcinogenicity", "setting": "[5]; in vivo", "result": "not"}, {"measurement": "AUC0-24", "setting": "[6]; 0.5 mg/day, 20 mg/100 g gel", "result": "0.2563 ± 0.2053", "unit": "ng·h/mL"}, {"measurement": "Cav = AUC0-24/24", "setting": "[6]; 0.5 mg/day, 20 mg/100 g gel", "result": "0.0107 ± 0.0085", "unit": "ng/mL"}, {"measurement": "Cmax", "setting": "[6]; 0.5 mg/day, 20 mg/100 g gel", "result": "0.017 ± 0.0085", "unit": "ng/mL"}, {"measurement": "tmax", "setting": "[6]; 0.5 mg/day, 20 mg/100 g gel", "result": "40 ± 81", "unit": "h"}, {"measurement": "AUC0-24", "setting": "[6]; 1 mg/day, 20 mg/100 g gel", "result": "0.3009 ± 0.1908", "unit": "ng·h/mL"}, {"measurement": "Cav = AUC0-24/24", "setting": "[6]; 1 mg/day, 20 mg/100 g gel", "result": "0.0125 ± 0.0079", "unit": "ng/mL"}, {"measurement": "Cmax", "setting": "[6]; 1 mg/day, 20 mg/100 g gel", "result": "0.021 ± 0.014", "unit": "ng/mL"}, {"measurement": "tmax", "setting": "[6]; 1 mg/day, 20 mg/100 g gel", "result": "24 ± 18", "unit": "h"}, {"measurement": "AUC0-24", "setting": "[6]; 1 mg/day, 57 mg/100 g gel", "result": "0.619 ± 0.466", "unit": "ng·h/mL"}, {"measurement": "Cav = AUC0-24/24", "setting": "[6]; 1 mg/day, 57 mg/100 g gel", "result": "0.0258 ± 0.0194", "unit": "ng/mL"}, {"measurement": "Cmax", "setting": "[6]; 1 mg/day, 57 mg/100 g gel", "result": "0.0351 ± 0.0224", "unit": "ng/mL"}, {"measurement": "tmax", "setting": "[6]; 1 mg/day, 57 mg/100 g gel", "result": "12.8 ± 14.9", "unit": "h"}, {"measurement": "t1/2", "setting": "[6]; 1 mg/day, 57 mg/100 g gel", "result": "(58-118) hr"}, {"measurement": "AUC0-24", "setting": "[6]; 2 mg/day, 57 mg/100 g gel", "result": "0.998 ± 0.653", "unit": "ng·h/mL"}, {"measurement": "Cav = AUC0-24/24", "setting": "[6]; 2 mg/day, 57 mg/100 g gel", "result": "0.0416 ± 0.0272", "unit": "ng/mL"}, {"measurement": "Cmax", "setting": "[6]; 2 mg/day, 57 mg/100 g gel", "result": "0.0516 ± 0.0317", "unit": "ng/mL"}, {"measurement": "tmax", "setting": "[6]; 2 mg/day, 57 mg/100 g gel", "result": "11.8 ± 12.3", "unit": "h"}, {"measurement": "t1/2", "setting": "[6]; 2 mg/day, 57 mg/100 g gel", "result": "(49-101) hr"}]}
{"smiles": "CC/C(=C(\\c1ccc(O)cc1)c1ccc(OCCN(C)C)cc1)c1ccccc1", "note": "[Z-4-hydroxy tamoxifen]", "values": [{"measurement": "percentage of isomer in breast tissue radioactivity", "setting": "[4]", "result": 32, "unit": "%"}]}
{"smiles": "CC/C(=C(/c1ccc(O)cc1)c1ccc(OCCN(C)C)cc1)c1ccccc1", "note": "(single isomer, unassigned) [E isomer]", "values": [{"measurement": "percentage of isomer in breast tissue radioactivity", "setting": "[1]; day 7 after cutaneous Z-[^3H]-4-hydroxy tamoxifen", "result": 33, "unit": "%"}]}
{"smiles": "CC/C(=C(\\c1ccccc1)c1ccc(OCCN(C)C)cc1)c1ccccc1", "note": "[tamoxifen]", "values": [{"measurement": "inhibitory effect on estrone sulphatase activity", "setting": "estrone sulphatase", "result": "little or no effect"}, {"measurement": "side effects reported by one person of the group", "setting": "[7]", "result": "hot flashes and mild vaginitis"}, {"measurement": "initiation of apoptosis", "setting": "[8]", "result": "initiates apoptosis"}, {"measurement": "time of plateau of radioactivity in blood", "setting": "[1]; cutaneous [^3H]-labeled drug", "result": 2, "unit": "days"}, {"measurement": "retention in the breast", "setting": "[1]; cutaneous [^3H]-labeled drug, 80 μCi", "result": "shorter and far weaker"}, {"measurement": "collagen production", "setting": "keloid fibroblast; keloid fibroblasts", "result": "decreases collagen production"}, {"measurement": "keloid fibroblast proliferation", "setting": "keloid fibroblast", "result": "inhibits keloid fibroblast proliferation"}, {"measurement": "rat liver carcinogenicity", "setting": "[5]", "result": "potent rat liver carcinogen"}, {"measurement": "TGF-β1 expression", "setting": "TGF-β1", "result": "downregulating TGF-β1 expression"}]}
{"smiles": "CC(C)(c1ccc(O)cc1)c1ccc(O)cc1", "note": "[Bisphenol]", "values": [{"measurement": "% Metabolites in Breast Tissue", "setting": "[1]; [9]", "result": 1, "unit": "%"}, {"measurement": "share of radioactivity in blood", "setting": "[1]", "result": 11, "unit": "%"}, {"measurement": "% Metabolites in Breast Tissue", "setting": "[1]; [10]", "result": 2, "unit": "%"}, {"measurement": "% Metabolites in Breast Tissue", "setting": "[1]; [11]", "result": 3, "unit": "%"}, {"measurement": "% Metabolites in Breast Tissue", "setting": "[1]; [12]", "result": 8, "unit": "%"}, {"measurement": "% Metabolites in Breast Tissue", "setting": "[1]; [13]", "result": 8, "unit": "%"}]}
